# Laboratory results from patent US10736877B2, “Tryptamine-based ship inhibitors for the treatment of cancer” (THE RESEARCH FOUNDATION FOR THE STATE UNIVERSITY OF NEW YORK, priority 2015, dated 2020).
# Entries after “also recorded” stand apart in the source; their conditions may differ.
# Key:
# [1] = tested on: PKB, pS6 and ERK phosphorylation in HCT116 cells; test: Western blotting of signaling, HCT116 cells; type: cell-based, human; settings: HCT116, serum starved; K149 10 μM 1 h, LY2940002 20 μM 1 h, EGF 10 ng/mL 15 minutes
# Protocol: (§1) Western blotting. HCT116 and CACO-2 cells were serum starved by incubating for 2 h, after which cells were stimulated for 15 minutes with EGF (10 ng/mL), or stimulated for 1 h with LY2940002 (20 μM) or SHIP2 inhibitor K149 (10 μM). Subsequently, cells were washed with PBS and lysed on ice in 300 μL 2× concentrated Laemmli buffer (100 mM Tris-HCl (pH 6.8), 200 mM dithiothreitol, 4% SDS, 0.1% bromophenol blue, 20% glycerol, and 2% DTT) and boiled for 5 minutes at 95° C. Cell extracts were resolved by SDS-PAGE and transferred to polyvinylidene difluoride membranes (Merck chemicals BV, Amsterdam, the Netherlands). Membranes were blocked in 50% odyssey blocking buffer (LI-COR Biosciences, Lincoln, Nebr.) in PBS/0.05% Tween-20 and incubated overnight at 4° C. with primary antibody. After washing in PBS-T, membranes were incubated with IRDye® antibodies (LI-COR Biosciences, Lincoln, Nebr.) for 1 h. Detection was performed using Odyssey reader and analyzed using manufacturers software.
# [2] = tested on: PKB, pS6 and ERK phosphorylation in CACO-2 cells; test: Western blotting of signaling, CACO-2 cells; type: cell-based, human; settings: CACO-2, serum starved; K149 10 μM 1 h, LY2940002 20 μM 1 h, EGF 10 ng/mL 15 minutes
# Protocol: as §1
# [3] = tested on: SHIP1; test: Malachite green phosphatase release assay, SHIP1; settings: for SHIP1 Inhibition: Malachite green assay at 1mM
# Protocol: Compounds were dissolved in 100% DMSO and then diluted to indicate final concentrations of performed assays (5% DMSO final concentration).
# For this purpose, OPM2 cells were lysed in IP-lysis buffer (20 mM Tris, 150 mM NaCl, 1 mM EDTA, 1 mM EGTA, 1% Triton X100, 1 mM PMSF, Halt protease inhibitor), and SHIP1 or OCRL were immuno-precipitated using mouse IgG antibodies from Santa Cruz Biotechnology (Santa Cruz, Calif.). Beads were washed four times with IP lysis buffer and once with TBS/MgCl2 (10 mM) and resuspended in TBS/MgCl2. SHIP inhibitors (200 μM) were added to the beads for 5 minutes, after which immunoprecipitated SHIP1 was incubated in the presence of 100 μM PtdIns(3,4,5)P3 (Echelon Biosciences, Salt Lake City, Utah), whereas immunoprecipitated OCRL was incubated in the presence of 100 μM PtdIns(4,5)P2 for 30 minutes. Malachite green solution was added according to manufacturer's instructions, and the plate was read after 20 minutes.
# [4] = tested on: SHIP2; test: Malachite green phosphatase release assay, SHIP2; type: biochemical, human; settings: for SHIP2 Inhibition: Malachite green assay at 1mM
# Excerpt: Detection of phosphatase enzymatic activity.
# [5] = High fat diet (diet-induced obese) mice: weight, bone health, toxicity; settings: HFD mice, 2× week, i.p., 10 mg/kg, two weeks
# [6] = tested on: MCF-7; test: Cell growth, MCF-7 breast cancer cell line; settings: MCF-7, increasing concentrations, compared with K103
# Protocol: (§2) Cells were treated in triplicate or more with increasing concentrations of compounds.
# (§3) All cell culture media were supplemented with 100 U/mL penicillin, 100 mg/mL streptomycin (Life technologies, Bleiswijk, NL) and 10% Fecal Calf Serum (FCS, Sigma-Aldrich, St. Louis, USA). Cells were maintained at 37° C. in a 5% CO2 humidified setting.
# [7] = tested on: HCT116; test: MTT cell viability assay, HCT116; type: cell-based; settings: for cell viability (MTT): HCT116
# [8] = tested on: CACO-2; test: MTT cell viability assay, CACO-2; type: cell-based; settings: for cell viability (MTT): CACO-2
# [9] = tested on: HCT116, RKO, LS-174T, CACO-2 and COLO 320; test: Cell viability in colorectal cancer cell lines with and without PI3K mutations; settings: 3 cell lines with PIK3CA mutation, 2 without
# Protocol: Cell lines. […] Colorectal cancer cell lines HCT116 CACO-2, COLO 320, and RKO were cultured in Dulbecco's Modified Eagles Medium (DMEM, Lonza, Basel, Switzerland). […] All cell culture media were supplemented with 100 U/mL penicillin, 100 mg/mL streptomycin (Life technologies, Bleiswijk, NL) and 10% Fecal Calf Serum (FCS, Sigma-Aldrich, St. Louis, USA). Cells were maintained at 37° C. in a 5% CO2 humidified setting.
# Cell viability assay. Cell viability was assessed using MTT assays. Cells were incubated with different concentrations of SHIP2 inhibitors, and/or chemotherapeutic agent 5-FU. 24 h, 48 h, 72 h, and 96 h after incubation cells were incubated with 5 mM MTT (3-(4,5-Dimethylthiazol-2-yl)-2,5-diphenyltetrazolium bromide) for 3 h and colorimetric changes were measured using a microplate reader (Model 680XR Bio-Rad) at 490 and 595 nm.
# [10] = tested on: OPM2; test: Cell growth, OPM2 multiple myeloma cell line; settings: OPM2, increasing concentrations, compared with K103
# Protocol: as §2, §3
# [11] = tested on: MDSC, iTreg cells, nTreg cells, neutrophils; test: Immune cell numbers and frequencies by flow cytometry in dosed mice; type: in vivo; settings: 10 mg/kg in 5% DMSO for 6 days
# Protocol: Mice were dosed for 6 days with […]
# [12] = tested on: MDA-MB-231; test: Cell growth, MDA-MB-231 breast cancer cell line; settings: MDA-MB-231, increasing concentrations, compared with K103
# Protocol: as §2, §3
# [13] = tested on: K562; test: Cell growth, K562 leukemia cell line; settings: K562, increasing concentrations, compared with K103
# Protocol: as §2, §3
# [14] = tested on: breast cancer cells; settings: cited from earlier work
compound,measurement,setting,value
"EGF: Epidermal Growth Factor, used to stimulate cellular signaling [reference compound]",ERK phosphorylation,[1],increased
same,PKB phosphorylation,[1],increased
same,pS6 phosphorylation,[1],increased
same,ERK phosphorylation,[2],increased
same,PKB phosphorylation,[2],increased
same,pS6 phosphorylation,[2],increased
"Cc1c(CCN)c2cc(Br)ccc2n1Cc1ccccc1Cl.Cl [Compound K148, 2-[1-(2-chlorobenzyl)-2-methyl-5-(bromo)-1H-3-yl] ethanaminium chloride]",SHIP1 Inhibition,[3],77%
same,SHIP2 Inhibition,[4],70%
"CSc1ccc2c(c1)c(CCN)c(C)n2Cc1ccc(Cl)cc1Cl.Cl [Compound K149, 2-[1-(2,4-dichlorobenzyl)-2-methyl-5-(methylmercapto)-1H-3-yl] ethanaminium chloride]",% body weight,[5],significant reductions
same,total weight,[5],significant reductions; also recorded: promotes weight loss
same,toxicity,[5],No toxicity was observed
same,bone mineral content (BMC),[5]; DEXA,no significant reduction or increase
same,bone mineral density (BMD),[5]; DEXA,no significant reduction or increase
same,effects compared to K103,"[3]; FIG. 1A-C, FIG. 1C is recombinant human tSHIP1",superior effects compared to K103
same,SHIP1 Inhibition,[3],81%
same,control of cancer cell growth,[6],more effective at controlling cancer cell growth
same,cell viability (MTT),[7],dose-dependent reduction in cell viability; also recorded: more sensitive to the K149 inhibitor; also recorded: induced cell death at lower concentrations in HCT116 cells than CACO-2 cells; also recorded: dose-dependent cell death
same,5-FU-induced cell death with SHIP2 inhibitor co-treatment,"[7]; HCT116, K149 2 uM with increasing concentrations of 5-FU",sensitizes CRC cells to the 5-FU treatment; also recorded: enhanced
same,cell viability (MTT),[8],dose-dependent reduction in cell viability; also recorded: more sensitive to the K149 inhibitor; also recorded: dose-dependent cell death
same,5-FU-induced cell death with SHIP2 inhibitor co-treatment,"[8]; CACO-2, K149 2 uM with increasing concentrations of 5-FU",sensitizes CRC cells to the 5-FU treatment; also recorded: enhanced
same,ERK phosphorylation,[1],not affected by either inhibitor; also recorded: affected by neither inhibitor
same,PKB phosphorylation,[1],diminished; also recorded: decreased
same,pS6 phosphorylation,[1],drastically increased
same,sensitivity by PI3K (PIK3CA) mutational status,[9],no difference in sensitivity to SHIP2 inhibition based on PIK3CA mutational status; also recorded: No relationship between SHIP2 inhibition and PI3K mutational status exists
same,control of cancer cell growth,[10],more effective at controlling cancer cell growth
same,MDSC counts,[11],significant increases
same,iTreg cell counts,[11],significant increases
same,nTreg cell counts,[11],significant increases
same,neutrophil counts,[11],significant increases
same,ERK phosphorylation,[2],not affected by either inhibitor; also recorded: affected by neither inhibitor
same,PKB phosphorylation,[2],diminished; also recorded: decreased
same,pS6 phosphorylation,[2],drastically increased
same,control of cancer cell growth,[12],more effective at controlling cancer cell growth
same,control of cancer cell growth,[13],more effective at controlling cancer cell growth
"CSc1ccc2c(c1)c(CCN)c(C)n2Cc1ccc(Cl)cc1.Cl [Compound K103, reference compound]",cell viability (MTT),[7]; hydrochloride,dose-dependent reduction in cell viability; also recorded: induced cell death at lower concentrations in HCT116 cells than CACO-2 cells; also recorded: dose-dependent cell death
same,SHIP2 activity,"[4]; recombinant SHIP2, 500 uM, vs vehicle control (DMSO), FIG. 5",inhibition of the SHIP2 activity
same,cell viability (MTT),[8]; hydrochloride,dose-dependent reduction in cell viability; also recorded: dose-dependent cell death
same,killing breast cancer cells,[14],effective in killing breast cancer cells
Cc1c(CCN)c2ccccc2n1Cc1ccccc1Cl.Cl,melting point,,161 to 169 °C
"CSc1ccc2c(c1)c(CCN)c(C)n2Cc1ccccc1.Cl [Compound K125, 2-[1-benzyl-2-methyl-5-(methylmercapto)-1H-3-yl] ethanaminium chloride]",SHIP1 Inhibition,[3],64%
same,SHIP2 Inhibition,[4],80%
same,melting point,,178 to 189 °C
"Cc1c(CCN)c2ccccc2n1Cc1ccccc1Cl.Cl [Compound K124, 2-[1-(2-chlorobenzyl)-2-methyl-5-1H-3-yl] ethanaminium chloride]",SHIP1 Inhibition,[3],62%
same,SHIP2 Inhibition,[4],70%
"CSc1ccc2c(c1)c(CCN)c(C)n2Cc1ccc(Cl)cc1.Cl [Compound K160, 2-[1-(4-chlorobenzyl)-2-methyl-5-(methylmercapto)-1H-3-yl] ethanaminium chloride]",SHIP1 Inhibition,[3],78%
same,SHIP2 Inhibition,[4],61%
same,melting point,,198 to 209 °C
"Cc1c(CCN)c2ccccc2n1Cc1ccccc1.Cl [Compound K123, 2-[1-benzyl-2-methyl-5-1H-3-yl] ethanaminium chloride]",SHIP1 Inhibition,[3],15%
same,melting point,,158 to 161 °C
